According to article PMC5298231, “The Malaria Parasite's Lactate Transporter PfFNT Is the Target of Antiplasmodial Compounds Identified in Whole Cell Phenotypic Screens” (PLoS Pathogens, 2017):
Peptide text beside a SMILES is read from it.

Tested on: erythrocytes infected with 3D7 trophozoites
Type: cell-based, Plasmodium falciparum
Conditions: sheet Ratio; for Ratio of metabolite abundance, Exp1_1hr: Exp1, 1hr; for Ratio of metabolite abundance, Exp1_3hr: Exp1, 3hr; for Ratio of metabolite abundance, Exp1_6hr: Exp1, 6hr; for Ratio of metabolite abundance, Exp2_1hr: Exp2, 1hr; for Ratio of metabolite abundance, Exp2_3hr: Exp2, 3hr; for Ratio of metabolite abundance, Exp2_6hr: Exp2, 6hr; for Ratio of metabolite abundance, Exp3_1hr: Exp3, 1hr; for Ratio of metabolite abundance, Exp3_3hr: Exp3, 3hr; for Ratio of metabolite abundance, Exp3_6hr: Exp3, 6hr

Row | Compound | Ratio of metabolite abundance, Exp1_1hr | Ratio of metabolite abundance, Exp1_3hr | Ratio of metabolite abundance, Exp1_6hr | Ratio of metabolite abundance, Exp2_1hr | Ratio of metabolite abundance, Exp2_3hr | Ratio of metabolite abundance, Exp2_6hr | Ratio of metabolite abundance, Exp3_1hr | Ratio of metabolite abundance, Exp3_3hr | Ratio of metabolite abundance, Exp3_6hr
1 | O=P(O)(OC[C@H](O)CO)OC1[C@H](O)[C@H](O)C(O)[C@H](O)[C@H]1O (stereo partly drawn) [sn-glycero-3-Phospho-1-inositol] | 0.9506 | 1.24 | 0.9287 | 1.0526 | 1.0759 | 1.139 | 0.7659 | 1.067 | 1.2236
2 | Nc1ccn([C@@H]2O[C@H](COP(=O)(O)OP(=O)(O)OP(=O)(O)O)[C@@H](O)[C@H]2O)c(=O)n1 [CTP] | 0.8417 | 0.6895 | 0.6055 | 0.8987 | 0.9317 | 0.7353 | 0.7379 | 0.8137 | 0.693
3 | CC(C)[C@H](NC(=O)[C@@H](N)CCC(=O)O)C(=O)NCC(=O)NCC(=O)O [EVGG] (H-EVGG-OH) | 1.013 | 0.7941 | 0.8262 | 1.036 | 0.9151 | 0.9384 | 0.988 | 0.9676 | 0.8158
4 | CC(=O)N[C@@H](CCC(=O)O)C(=O)O [N-Acetyl-glutamate] | 1.252 | 0.8243 | 0.4492 | 1.417 | 0.7877 | 0.6113 | 0.5549 | 0.2844 | 0.3771
5 | O=C(O)C1CCCCN1 (stereo not drawn) [Pipecolate] | 1.3778 | 1.045 | 1.52 | 1.38 | 1.052 | 2.481 | 1.352 | 1.13 | 2.281
6 | O=P(O)(O)OC[C@H](O)CO [sn-Glycerol 3-phosphate] | 2.74 | 3.024 | 2.283 | 2.716 | 2.322 | 2.253 | 2.3639 | 3.645 | 2.752
7 | Nc1nc2c(ncn2[C@@H]2O[C@H](COP(=O)(O)OP(=O)(O)O[C@H]3O[C@H](CO)[C@@H](O)[C@H](O)[C@@H]3O)[C@@H](O)[C@H]2O)c(=O)[nH]1 [GDP-mannose] | 1.172 | 0.7132 | 0.4189 | 0.9396 | 0.7145 | 0.4773 | 0.9382 | 0.7837 | 0.5338
8 | N[C@@H](CO)C(=O)N[C@@H](Cc1ccccc1)C(=O)NCC(=O)N[C@@H](CC(=O)O)C(=O)O [SFGD] (H-SFGD-OH) | 0.9984 | 0.657 | 0.8343 | 0.9574 | 0.8881 | 0.8874 | 0.972 | 0.9269 | 0.9926
9 | CC(C)[C@H](NC(=O)[C@@H]1CCCN1)C(=O)N[C@@H](CCC(N)=O)C(=O)N[C@@H](C)C(=O)O [PVQA] (H-PVQA-OH) | 0.5661 | 0.3168 | 0.8691 | 0.7152 | 0.5356 | 0.8856 | 0.5318 | 0.3152 | 1.03
10 | CC(=O)N[C@@H](C)C(=O)O [Acetyl-L-alanine] | 1.844 | 0.6703 | 0.7764 | 1.062 | 0.5861 | 0.7816 | 0.7593 | 1.204 | 0.7219
11 | Nc1nc2c(ncn2[C@@H]2O[C@H](COP(=O)(O)OP(=O)(O)OP(=O)(O)O)[C@@H](O)[C@H]2O)c(=O)[nH]1 [GTP] | 0.6647 | 0.5629 | 0.5991 | 0.6384 | 0.6479 | 0.6462 | 0.7156 | 0.6328 | 0.6081
12 | CCCCC/C=C\C/C=C\C/C=C\CCCCCCC(=O)O [DGLA] | 0.6512 | 0.4296 | 1.744 | 0.832 | 0.6938 | 1.456 | 0.7202 | 0.7277 | 2.242
13 | CC(C)[C@H](N)C(=O)N[C@@H](CC(=O)O)C(=O)O [VD] | 1.809 | 1.252 | 2.887 | 2.091 | 1.368 | 1.996 | 11.5926 | 5.435 | 7.8446
14 | N[C@@H](COP(=O)(O)O)C(=O)O [3-Phospho-serine] | 0.7768 | 0.7478 | 0.6073 | 1.092 | 0.7496 | 0.7836 | 0.6617 | 0.7708 | 0.5594
15 | CC(C)[C@H](NC(=O)[C@H](CC(N)=O)NC(=O)[C@@H](N)[C@@H](C)O)C(=O)N[C@@H](CCCCN)C(=O)O [TNVK] (H-TNVK-OH) | 0.4459 | 0.2171 | 0.7349 | 0.5855 | 0.3584 | 0.8812 | 0.5059 | 0.3409 | 1.2
16 | Nc1ccn([C@@H]2O[C@H](COP(=O)(O)OP(=O)(O)O)[C@@H](O)[C@H]2O)c(=O)n1 [CDP] | 1.235 | 0.632 | 0.653 | 1.081 | 0.7109 | 1.157 | 0.7322 | 0.673 | 0.7355
17 | O=c1[nH]cnc2c1ncn2[C@@H]1O[C@H](COP(=O)(O)OP(=O)(O)O)[C@@H](O)[C@H]1O [IDP] | 0.8853 | 1.384 | 1.314 | 0.5363 | 0.6148 | 0.824 | 1.461 | 1.458 | 1.561
18 | CC(C)C[C@H](NC(=O)CNC(=O)[C@H](CC(=O)O)NC(=O)[C@@H](N)CO)C(=O)N[C@@H](C)C(=O)O [SDGLA] (H-SDGLA-OH) | 0.8703 | 0.6348 | 0.4701 | 0.9687 | 0.9448 | 0.8041 | 0.872 | 0.7497 | 0.5099
19 | CC(=O)SCCNC(=O)CCNC(=O)[C@H](O)C(C)(C)COP(=O)(O)OP(=O)(O)OC[C@H]1O[C@@H](n2cnc3c(N)ncnc32)[C@H](O)[C@@H]1OP(=O)(O)O [Acetyl-CoA] | 0.7257 | 0.4303 | 0.3828 | 0.6969 | 0.7538 | 0.6508 | 0.7524 | 0.685 | 0.5138
